Test results from patent US20210261538A1, “PROTEIN ARGININE METHYLTRANSFERASE 5 (PRMT5) DEGRADATION / DISRUPTION COMPOUNDS AND METHODS OF USE” (ICAHN SCHOOL OF MEDICINE AT MOUNT SINAI, priority 2018, published 2021).
Entries after “also recorded” stand apart in the source; their conditions may differ.

Experiments:
PRMT5 [1] = molecular target: T1, PRMT5 (Homo sapiens, UniProt O14744); assay: Western blot of PRMT5 protein levels in HeLa cells; format: cell-based; parameters: endogenous in cells; settings: 5 μM, 6 days
T1 sequence (O14744 whole entry): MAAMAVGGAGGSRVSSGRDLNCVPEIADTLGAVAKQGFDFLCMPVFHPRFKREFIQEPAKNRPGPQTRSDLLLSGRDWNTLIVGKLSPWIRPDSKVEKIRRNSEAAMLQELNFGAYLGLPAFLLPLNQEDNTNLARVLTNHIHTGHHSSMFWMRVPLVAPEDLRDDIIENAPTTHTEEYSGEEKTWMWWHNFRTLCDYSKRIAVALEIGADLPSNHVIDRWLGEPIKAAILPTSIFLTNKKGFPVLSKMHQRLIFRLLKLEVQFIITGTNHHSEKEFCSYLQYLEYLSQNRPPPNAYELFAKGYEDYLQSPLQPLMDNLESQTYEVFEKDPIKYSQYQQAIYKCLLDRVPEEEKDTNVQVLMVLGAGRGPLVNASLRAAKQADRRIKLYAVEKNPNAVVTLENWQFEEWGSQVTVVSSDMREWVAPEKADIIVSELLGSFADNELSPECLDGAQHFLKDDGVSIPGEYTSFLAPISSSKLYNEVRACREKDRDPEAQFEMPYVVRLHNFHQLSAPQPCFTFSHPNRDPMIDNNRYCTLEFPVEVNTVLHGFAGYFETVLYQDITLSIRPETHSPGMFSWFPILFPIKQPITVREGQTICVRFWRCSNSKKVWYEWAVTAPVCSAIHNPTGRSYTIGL
T1 sequence (Q9BQA1 whole entry partner): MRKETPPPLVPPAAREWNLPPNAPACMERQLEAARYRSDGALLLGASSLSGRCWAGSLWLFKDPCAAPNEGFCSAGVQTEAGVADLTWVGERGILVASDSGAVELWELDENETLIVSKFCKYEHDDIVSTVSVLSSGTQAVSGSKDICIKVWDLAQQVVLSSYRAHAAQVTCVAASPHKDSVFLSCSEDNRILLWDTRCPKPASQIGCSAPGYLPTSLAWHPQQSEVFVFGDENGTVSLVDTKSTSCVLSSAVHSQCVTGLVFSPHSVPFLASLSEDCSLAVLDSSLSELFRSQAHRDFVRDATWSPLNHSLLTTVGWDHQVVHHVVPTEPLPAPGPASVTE
Protocol: (§1) MCF-7 cells, HEK293T cells and HeLa cells were cultured in Dulbecco's Modified Eagle Medium (DMEM) supplemented with 10% fetal bovine serum (FBS) in 5% CO2 at 37° C. Jurkat cells were cultured in RPMI 1640 medium supplemented with 10% FBS in 5% CO2 at 37° C. H2171 cells were cultured in HITES medium supplemented with 10% FBS in 5% CO2 at 37° C. HCT116 were cultured in McCoy's 5A medium supplemented with 10% fetal bovine serum (FBS) in 5% CO2 at 37° C. All the cells lines were treated with 5 μM (or indicated concentration) of PRMT5 inhibitor (EPZ015666) or degraders, or equivalent volume of DMSO for 6 days (or indicated time points). Fresh compounds were constituted in medium and used for every 2 days. The antibodies used in this study are: PRMT5 antibody (Active Motif), (3-actin antibody (Sigma), SDMA antibody (collaboration with Cell Signaling Technologies). Cell cultures were harvested at the end of compound treatments and applied subjected to western blotting assay. Briefly, cells were washed with PBS and lysed with RIPA lysis buffer for 20 minutes on ice. Then lysates were centrifuged and the clear supernatant were collected. SDS loading buffer was added to the lysates and then the mixture was boiled at 100° C. for 5 minutes. Samples were loaded to 10% or 12% SDS-PAGE gel and ran at 120V for 1.5 hours. […]

[2] = Standard PK study in mice; format: in vivo, male Swiss Albino mice; settings: single 150 mg/kg IP injection
Protocol: Standard PK studies were conducted using male Swiss Albino mice. A single 150 mg/kg intraperitoneal (IP) injection of YS43-22 was evaluated. Plasma concentrations of YS43-22 reported at each of the six time points (15 min, 30 min, 1 h, 2 h, 6 h, and 12 h post dosing) are the average values from 3 test animals.

PRMT5 [3] = molecular target: T1, PRMT5; assay: Western blot of PRMT5 protein levels in HCT116 cells; format: cell-based; parameters: endogenous in cells; settings: 5 μM, 6 days
Protocol: as §1

PRMT5 [4] = molecular target: T1, PRMT5; assay: Western blot of PRMT5 protein levels in 293T cells; format: cell-based; parameters: endogenous in cells; host or cells: 293T (HEK293T); settings: 5 μM, 6 days
Protocol: as §1

PRMT5 substrates = assay: Arginine symmetric dimethylation (SDMA Western blot) in MCF-7 cells; format: cell-based
Protocol: MCF-7 cells, HEK293T cells and HeLa cells were cultured in Dulbecco's Modified Eagle Medium (DMEM) supplemented with 10% fetal bovine serum (FBS) in 5% CO2 at 37° C. Jurkat cells were cultured in RPMI 1640 medium supplemented with 10% FBS in 5% CO2 at 37° C. H2171 cells were cultured in HITES medium supplemented with 10% FBS in 5% CO2 at 37° C. HCT116 were cultured in McCoy's 5A medium supplemented with 10% fetal bovine serum (FBS) in 5% CO2 at 37° C. All the cells lines were treated with 5 μM (or indicated concentration) of PRMT5 inhibitor (EPZ015666) or degraders, or equivalent volume of DMSO for 6 days (or indicated time points). Fresh compounds were constituted in medium and used for every 2 days. The antibodies used in this study are: PRMT5 antibody (Active Motif), (3-actin antibody (Sigma), SDMA antibody (collaboration with Cell Signaling Technologies). Cell cultures were harvested at the end of compound treatments and applied subjected to western blotting assay. Briefly, cells were washed with PBS and lysed with RIPA lysis buffer for 20 minutes on ice. Then lysates were centrifuged and the clear supernatant were collected. SDS loading buffer was added to the lysates and then the mixture was boiled at 100° C. for 5 minutes. Samples were loaded to 10% or 12% SDS-PAGE gel and ran at 120V for 1.5 hours. Then the proteins were transferred to PVDF membrane and blocked in 5% milk fat at room temperature for 1 hour. Then the membranes were incubated with indicated antibodies at 4° C. overnight. Membranes were washed with PBST buffer three times for 10 minutes each time and incubated with HRP-conjugated (horse radish peroxidase) secondary antibodies at room temperature for 1 hour. Again the membranes were washed with PBST buffer three times for 10 minutes each time. Finally, the indicated proteins on the membranes were visualized with ECL (enhanced chemiluminescence) reagents. MCF-7 cells were treated with EPZ015666 or YS43-22 at indicated compound concentrations (μM) for 6 days.

PRMT5 [5] = molecular target: T1, PRMT5; assay: Western blot of PRMT5 protein levels in H2171 cells; format: cell-based; parameters: endogenous in cells; settings: 5 μM, 6 days
Protocol: as §1

PRMT5 [6] = molecular target: T1, PRMT5; assay: Western blot of PRMT5 protein levels in multiple cell lines; format: cell-based; parameters: endogenous in cells; host or cells: MCF-7; settings: MCF-7, Hela, Jurkat, HCT116, 293T and H2171 cells, 5 μM, 6 days
Protocol: as §1

For `Cc1ncsc1-c1ccc([C@H](C)NC(=O)[C@@H]2C[C@@H](O)CN2C(=O)[C@@H](NC(=O)COCCOCCOCCOCCOCC(=O)N2CC(Nc3cc(C(=O)NC[C@H](O)CN4CCc5ccccc5C4)ncn3)C2)C(C)(C)C)cc1` [YS43-22, N-((S)-3-(3,4-dihydroisoquinolin-2(1H)-yl)-2-hydroxypropyl)-6-((1-((S)-19-((2S,4R)-4-hydroxy-2-(((S)-1-(4-(4-methylthiazol-5-yl)phenyl)ethyl)carbamoyl)pyrrolidine-1-carbonyl)-20,20-dimethyl-17-oxo-3,6,9,12,15-pentaoxa-18-azahenicosanoyl)azetidin-3-yl)amino)pyrimidine-4-carboxamide], the PRMT5 protein levels (PRMT5 [1]) was “moderately”, the clinical observations [2] was “no abnormal clinical observations” and the “bioavailability (plasma concentrations)” value ([2]; 15 min to 12 h post dosing, 150 mg/kg) was “Bioavailable”. The PRMT5 protein levels (PRMT5 [3]) was “slightly”, the PRMT5 protein levels (PRMT5 [4]) was “slightly” and the “suppressing PRMT5 activity” value (PRMT5 substrates; MCF-7 cells (Examples 90-92)) was “especially effective”. For the same compound, the “inhibition of arginine symmetric dimethylation” value (PRMT5 substrates; MCF-7 cells, indicated concentrations (μM), 6 days) was “significantly inhibited; also recorded: significant inhibition”, the PRMT5 protein levels (PRMT5 [5]) was “not obviously” and the “PRMT5 protein levels in different cell lines” value (PRMT5 [6]) was “significantly reduced”. The “relative potency in down-regulation of PRMT5 protein levels” value (PRMT5 [6]) was “more potent than YS43-8”.
